Patent US3985875A, “ω-(N-acylamino)alkylphosphoryl ethanolamines, pharmaceutical compositions containing them, and their uses” (Dainippon Pharmaceutical Co., Ltd., priority 1974, dated 1976)
Read-outs that look alike come from different tables or passages of the source.

Experiments:
[1] = biological target: T1, Renin (Homo sapiens, UniProt P00797); test: Renin-inhibitory activity, Method I (inhibition of Angiotensin I formation, RIA); assay type: biochemical; settings: for inhibition at 1250 µg/mL: 1.25 mg/ml; for inhibition at 313 µg/mL: 0.313 mg/ml; for inhibition at 625 µg/mL: 0.625 mg/ml; for inhibition at 2500 µg/mL: 2.5 mg/ml
T1 sequence (P00797 67-406): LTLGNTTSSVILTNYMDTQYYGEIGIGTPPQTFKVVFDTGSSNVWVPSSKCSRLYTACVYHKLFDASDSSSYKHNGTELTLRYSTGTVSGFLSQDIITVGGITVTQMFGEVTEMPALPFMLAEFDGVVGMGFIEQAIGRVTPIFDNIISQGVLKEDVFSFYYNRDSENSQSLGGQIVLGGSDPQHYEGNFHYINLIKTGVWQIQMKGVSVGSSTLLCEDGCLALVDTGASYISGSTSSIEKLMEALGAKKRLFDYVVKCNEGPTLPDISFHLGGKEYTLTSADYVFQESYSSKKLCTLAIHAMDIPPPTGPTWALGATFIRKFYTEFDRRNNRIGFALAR
Experimental: Renin (see E. Haas et al. Circulation Research, Vol. 19, p. 739, 1966 and Vol. 31, p. 65, 1972) was incubated in Angiotensinogen at 37° C. for 2 to 6 hours. Similarly, renin was incubated under the same conditions in the presence of 0.313 to 2.5 mg/ml. of each of the test compounds listed above. The amount of Angiotensin I was measured by radioimmunoassay (RIA) (E. Haber et al., J. Clin. Endocrinol., Vol. 29, p. 1349, 1969), and made the renin activity.
(§1) The results are shown in Table 1 (the rate of inhibiting the formation of Angiotensin I, as determined by Method I, when the plasma was incubated at 37° C. for 2, 4 and 6 hours respectively), and Table 2 (the rate of inhibiting the formation of Angiotensin I when the plasma was incubated at 37° C. for 4 hours, with the compound concentration of 1.25 mg/ml.)

[2] = biological target: T2, High renin plasma (Canis lupus familiaris, UniProt Q6DYE7); test: Renin-inhibitory activity, Method II (high renin plasma of dog, inhibition of Angiotensin I formation); assay type: biochemical; settings: Table 2; 37°C, 4 hours, 1.25 mg/ml; read-out: Rate of inhibiting the formation of Angiotensin I determined by Method II
T2 construct: High renin plasma prepared by constriction of the renal artery of a dog anesthetized with Nembutal; from tissue; host or cells: plasma of a dog with constricted renal artery
T2 sequence (Q6DYE7 66-403): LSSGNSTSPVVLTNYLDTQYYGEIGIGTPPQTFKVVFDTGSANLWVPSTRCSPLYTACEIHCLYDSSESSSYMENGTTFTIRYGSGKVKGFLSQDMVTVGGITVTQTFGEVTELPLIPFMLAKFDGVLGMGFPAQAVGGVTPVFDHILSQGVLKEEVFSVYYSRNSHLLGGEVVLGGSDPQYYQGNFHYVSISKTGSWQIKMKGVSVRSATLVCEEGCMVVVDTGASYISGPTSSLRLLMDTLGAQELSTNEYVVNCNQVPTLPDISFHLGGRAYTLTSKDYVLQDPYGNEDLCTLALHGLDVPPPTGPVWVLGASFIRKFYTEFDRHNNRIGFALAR
Experimental: High renin plasma prepared by constriction of the renal artery of a dog anesthetized with Nembutal (the plasma which when incubated at 37°40 C. for 6 hours, yields 30 to […]. of Angiotensin I) was incubated at 37° C. for 2 to 6 hours in the same way as in Method I, and also under the same conditions in the presence of 1.25 mg/ml. of each of the test compounds.
as §1

[3] = system: renal hypertensive rats; test: Antihypertensive activity in rats, p.o. (Table 4); assay type: in vivo, rat; settings: 100 mg/kg/day p.o.
Experimental: (§2) An aqueous solution or suspension in peanut oil of each test compound as administered intramuscularly (i.m.) or orally (p.o.) at a dose of 30 to 100 mg/kg (body weight)/day once every morning over the period of 6 to 7 days.
(§3) The blood pressure of each rat was measured daily before and 5 hours after each administration. Furthermore, the blood pressure was measured every morning after drug withdrawal over a period of 3 to 6 days.
(§4) Test compounds (1)-(4) decreased the blood pressure of renal hypertensive rats with a dose of 30 mg/kg/day i.m.. […] The antihypertensive rats with a dose of 100 mg/kg/day p.o..

[4] = system: renal hypertensive rats; test: Antihypertensive activity in renal hypertensive rats, i.m. (Table 3); assay type: in vivo, rat; settings: 30 mg/kg/day i.m.
Experimental: as §2, §3, §4

[5] = Table 2, 37°C, 4 hours, read-out: Rate of inhibiting the formation of Angiotensin I determined by Method I
[6] = 1st day, 0 h (immediately before administration)
[7] = 1st day, 5 hours after administration
[8] = 2nd day, 0 h (immediately before administration)
[9] = 2nd day, 5 hours after administration
[10] = 3rd day, 0 h (immediately before administration)
[11] = 3rd day, 5 hours after administration
[12] = 4th day, 0 h (immediately before administration)
[13] = 4th day, 5 hours after administration
[14] = 5th day, 0 h (immediately before administration)
[15] = 5th day, 5 hours after administration
[16] = 6th day, 0 h (immediately before administration)
[17] = 6th day, 5 hours after administration
[18] = 7th day, 0 h (immediately before administration)
[19] = 7th day, 5 hours after administration
[20] = incubating time 2 hours, read-out: Rate of inhibiting the formation of Angiotensin I
[21] = incubating time 4 hours, read-out: Rate of inhibiting the formation of Angiotensin I
[22] = incubating time 6 hours, read-out: Rate of inhibiting the formation of Angiotensin I

`CC(Oc1ccc(Oc2ccc(Cl)cc2)cc1)C(=O)NCCCOP(=O)(O)OCCN` (stereo not drawn) [(8), 3-{α-[4-(4'-chlorophenoxy)phenoxy]propionylamino} propylphosphoryl ethanolamine] was tested, and the inhibition at 1250 µg/mL [1, 5] was 67%, the inhibition at 1250 µg/mL [2] was 51% and the “Changes of blood pressure after drug withdrawal” value (from here on “Changes … after drug withdrawal”) ([3]; 1st day after withdrawal) was -22 mmHg. The “Changes of blood pressure” value [3, 6] was 0 mmHg, the “Changes of blood pressure” value [3, 7] was “+4 mmHg” and the “Changes … after drug withdrawal” value ([3]; 2nd day after withdrawal) was -12 mmHg. For the same compound, the “Changes of blood pressure” value [3, 8] was “+5 mmHg”, the “Changes of blood pressure” value [3, 9] was -1 mmHg and the “Changes … after drug withdrawal” value ([3]; 3rd day after withdrawal) was -5 mmHg. The “Changes of blood pressure” value [3, 10] was -6 mmHg, the “Changes of blood pressure” value [3, 11] was -13 mmHg and the “Changes … after drug withdrawal” value ([3]; 4th day after withdrawal) was “+2 mmHg”. For the same compound, the “Changes of blood pressure” value [3, 12] was -10 mmHg, the “Changes of blood pressure” value [3, 13] was -16 mmHg and the “Changes … after drug withdrawal” value ([3]; 5th day after withdrawal) was “+1 mmHg”. For the same compound, the “Changes of blood pressure” value [3, 14] was -10 mmHg, the “Changes of blood pressure” value [3, 15] was -16 mmHg and the “Changes … after drug withdrawal” value ([3]; 6th day after withdrawal) was “+1 mmHg”. For the same compound, the “Changes of blood pressure” value [3, 16] was -9 mmHg, the “Changes of blood pressure” value [3, 17] was -23 mmHg and the “Changes of blood pressure” value [3, 18] was -13 mmHg. The “Changes of blood pressure” value [3, 19] was -25 mmHg.
`CCC=CCC=CCC=CCCCCCCCC(=O)NCCCOP(=O)(O)OCCN` [Compound (2), 3-(Octadeca-9,12,15-trienoylamino)propylphosphoryl ethanolamine] gave an inhibition at 313 µg/mL [1, 20] of 25%, an inhibition at 313 µg/mL [1, 21] of 27% and an inhibition at 313 µg/mL [1, 22] of 22%. The inhibition at 625 µg/mL [1, 20] was 50%, the inhibition at 625 µg/mL [1, 21] was 45% and the inhibition at 625 µg/mL [1, 22] was 47%. It also gave an inhibition at 1250 µg/mL [1, 20] of 75%, an inhibition at 1250 µg/mL [1, 21] of 78% and an inhibition at 1250 µg/mL [1, 22] of 80%. It also gave an inhibition at 2500 µg/mL [1, 20] of 93%, an inhibition at 2500 µg/mL [1, 21] of 100% and an inhibition at 2500 µg/mL [1, 22] of 100%. For the same compound, the inhibition at 1250 µg/mL [1, 5] was 78%, the inhibition at 1250 µg/mL [2] was 59% and the “Changes … after drug withdrawal” value ([4]; 1st day after withdrawal) was -34 mmHg. For the same compound, the “Changes of blood pressure” value [4, 6] was 0 mmHg, the “Changes of blood pressure” value [4, 7] was -17 mmHg and the “Changes … after drug withdrawal” value ([4]; 2nd day after withdrawal) was -21 mmHg. The “Changes of blood pressure” value [4, 8] was -1 mmHg, the “Changes of blood pressure” value [4, 9] was -26 mmHg and the “Changes … after drug withdrawal” value ([4]; 3rd day after withdrawal) was -7 mmHg. The “Changes of blood pressure” value [4, 10] was -20 mmHg, the “Changes of blood pressure” value [4, 11] was -31 mmHg and the “Changes of blood pressure” value [4, 12] was -22 mmHg. The “Changes of blood pressure” value [4, 13] was -34 mmHg, the “Changes of blood pressure” value [4, 14] was -23 mmHg and the “Changes of blood pressure” value [4, 15] was -39 mmHg. The “Changes of blood pressure” value [4, 16] was -29 mmHg and the “Changes of blood pressure” value [4, 17] was -44 mmHg.
In the case of `NCCOP(=O)(O)OCCCNC(=O)COc1ccc(Oc2ccc(Cl)cc2)cc1` [(7), 3-[4-(4'-chlorophenoxy)phenoxyacetylamino]propylphosphoryl ethanolamine], the inhibition at 1250 µg/mL [1, 5] is reported as 64%, the inhibition at 1250 µg/mL [2] is reported as 52% and the “Changes … after drug withdrawal” value ([3]; 1st day after withdrawal) is reported as -19 mmHg. The “Changes of blood pressure” value [3, 6] was 0 mmHg, the “Changes of blood pressure” value [3, 7] was -6 mmHg and the “Changes … after drug withdrawal” value ([3]; 2nd day after withdrawal) was -11 mmHg. For the same compound, the “Changes of blood pressure” value [3, 8] was -3 mmHg, the “Changes of blood pressure” value [3, 9] was -10 mmHg and the “Changes … after drug withdrawal” value ([3]; 3rd day after withdrawal) was -5 mmHg. For the same compound, the “Changes of blood pressure” value [3, 10] was -3 mmHg, the “Changes of blood pressure” value [3, 11] was -18 mmHg and the “Changes … after drug withdrawal” value ([3]; 4th day after withdrawal) was -5 mmHg. For the same compound, the “Changes of blood pressure” value [3, 12] was -10 mmHg, the “Changes of blood pressure” value [3, 13] was -19 mmHg and the “Changes … after drug withdrawal” value ([3]; 5th day after withdrawal) was -3 mmHg. For the same compound, the “Changes of blood pressure” value [3, 14] was -10 mmHg, the “Changes of blood pressure” value [3, 15] was -21 mmHg and the “Changes … after drug withdrawal” value ([3]; 6th day after withdrawal) was -1 mmHg. For the same compound, the “Changes of blood pressure” value [3, 16] was -11 mmHg, the “Changes of blood pressure” value [3, 17] was -25 mmHg and the “Changes of blood pressure” value [3, 18] was -18 mmHg. For the same compound, the “Changes of blood pressure” value [3, 19] was -28 mmHg.
For `CCCCCC=CCC=CCCCCCCCC(=O)NCCOP(=O)(O)OCCN` [(3), 2-(Octadeca-9,12-dienoylamino)ethylphosphoryl ethanolamine], the inhibition at 1250 µg/mL [1, 5] was 25%, the inhibition at 1250 µg/mL [2] was 21% and the “Changes … after drug withdrawal” value ([4]; 1st day after withdrawal) was -39 mmHg. The “Changes of blood pressure” value [4, 6] was 0 mmHg, the “Changes of blood pressure” value [4, 7] was -12 mmHg and the “Changes … after drug withdrawal” value ([4]; 2nd day after withdrawal) was -8 mmHg. For the same compound, the “Changes of blood pressure” value [4, 8] was -1 mmHg, the “Changes of blood pressure” value [4, 9] was -9 mmHg and the “Changes … after drug withdrawal” value ([4]; 3rd day after withdrawal) was -1 mmHg. For the same compound, the “Changes of blood pressure” value [4, 10] was -8 mmHg, the “Changes of blood pressure” value [4, 11] was -17 mmHg and the “Changes of blood pressure” value [4, 12] was -23 mmHg. The “Changes of blood pressure” value [4, 13] was -38 mmHg, the “Changes of blood pressure” value [4, 14] was -27 mmHg and the “Changes of blood pressure” value [4, 15] was -39 mmHg. The “Changes of blood pressure” value [4, 16] was -35 mmHg and the “Changes of blood pressure” value [4, 17] was -48 mmHg.
